This note sets out measurements from patent US9637483B2, “Heterocyclic compound” (TAKEDA PHARMACEUTICAL COMPANY LIMITED, priority 2013, dated 2017).

Type in all cases: biochemical
Assay [1] deals with T1, JAK2 (Homo sapiens, UniProt O60674).
T1 construct: purchased Invitrogen
Description: JAK2 enzyme inhibition test (LANCE method). The note with it: 1 μM test compound; for inhibition at 1 µM: read-out: JAK2 enzyme inhibitory activity (%, 1 μM). Summed up:
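Recombinant JAK2 (6 ng/mL solution) phosphorylated ULight-JAK1 peptide (300 nM solution) with ATP (45 μM solution) in pH 7.5 HEPES/MgCl2/DTT buffer for 1 hr at room temperature. After EDTA stop and europium anti-phosphotyrosine antibody for 1 hr, TR-FRET read at 665 nm; inhibition relative to enzyme-free wells as 100%.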
On the technique in general: In TR-FRET formats the signal depends on donor and acceptor labels being close together.

Assay [2] addresses T2, JAK3 (Homo sapiens, UniProt P52333).
T2 construct: purchased Invitrogen
T2 sequence (P52333 1-1124): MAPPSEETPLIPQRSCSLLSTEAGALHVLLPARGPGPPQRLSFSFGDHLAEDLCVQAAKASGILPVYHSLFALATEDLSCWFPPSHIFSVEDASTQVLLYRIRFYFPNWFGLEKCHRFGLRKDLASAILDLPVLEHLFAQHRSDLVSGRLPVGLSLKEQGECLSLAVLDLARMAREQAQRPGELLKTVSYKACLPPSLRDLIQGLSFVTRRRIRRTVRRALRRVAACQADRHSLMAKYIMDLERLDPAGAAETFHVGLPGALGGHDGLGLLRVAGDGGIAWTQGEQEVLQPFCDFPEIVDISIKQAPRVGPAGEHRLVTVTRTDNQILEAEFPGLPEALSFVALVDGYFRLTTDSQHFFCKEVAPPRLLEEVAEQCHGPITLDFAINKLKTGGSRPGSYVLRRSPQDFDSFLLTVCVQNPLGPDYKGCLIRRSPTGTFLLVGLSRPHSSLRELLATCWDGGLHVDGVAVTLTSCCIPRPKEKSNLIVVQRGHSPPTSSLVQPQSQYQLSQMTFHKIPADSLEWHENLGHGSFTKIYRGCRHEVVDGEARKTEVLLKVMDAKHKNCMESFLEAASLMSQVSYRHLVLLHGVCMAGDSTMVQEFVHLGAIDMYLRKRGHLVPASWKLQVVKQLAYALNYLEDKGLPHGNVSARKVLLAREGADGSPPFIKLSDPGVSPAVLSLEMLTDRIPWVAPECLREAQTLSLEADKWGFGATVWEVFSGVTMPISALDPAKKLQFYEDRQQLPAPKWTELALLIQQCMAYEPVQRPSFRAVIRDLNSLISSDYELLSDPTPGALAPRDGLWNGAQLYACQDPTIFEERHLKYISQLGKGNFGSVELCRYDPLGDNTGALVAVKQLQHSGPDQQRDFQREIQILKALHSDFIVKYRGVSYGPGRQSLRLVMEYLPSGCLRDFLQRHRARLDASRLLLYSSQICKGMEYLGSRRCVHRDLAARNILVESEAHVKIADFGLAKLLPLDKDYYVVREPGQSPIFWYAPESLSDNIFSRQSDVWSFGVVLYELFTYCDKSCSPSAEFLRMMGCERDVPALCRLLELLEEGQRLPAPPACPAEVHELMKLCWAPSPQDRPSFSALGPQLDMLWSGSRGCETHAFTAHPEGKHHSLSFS
Description: JAK3 enzyme inhibition test (LANCE method). Conditions: 1 μM test compound; for inhibition at 1 µM: read-out: JAK3 enzyme inhibitory activity (%, 1 μM). Summed up:
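Recombinant JAK3 (12 ng/mL solution) with ULight-JAK1 peptide (300 nM solution) and ATP (15 μM solution) in HEPES pH 7.5 buffer, 1 h at room temperature. EDTA stop with Eu-anti-phosphotyrosine antibody; TR-FRET at 665 nm. Inhibition relative to enzyme-free wells as 100%.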

The target of assay [3] is T3, JAK1 (Homo sapiens, UniProt P23458).
T3 construct: purchased Invitrogen
T3 sequence (P23458 whole entry): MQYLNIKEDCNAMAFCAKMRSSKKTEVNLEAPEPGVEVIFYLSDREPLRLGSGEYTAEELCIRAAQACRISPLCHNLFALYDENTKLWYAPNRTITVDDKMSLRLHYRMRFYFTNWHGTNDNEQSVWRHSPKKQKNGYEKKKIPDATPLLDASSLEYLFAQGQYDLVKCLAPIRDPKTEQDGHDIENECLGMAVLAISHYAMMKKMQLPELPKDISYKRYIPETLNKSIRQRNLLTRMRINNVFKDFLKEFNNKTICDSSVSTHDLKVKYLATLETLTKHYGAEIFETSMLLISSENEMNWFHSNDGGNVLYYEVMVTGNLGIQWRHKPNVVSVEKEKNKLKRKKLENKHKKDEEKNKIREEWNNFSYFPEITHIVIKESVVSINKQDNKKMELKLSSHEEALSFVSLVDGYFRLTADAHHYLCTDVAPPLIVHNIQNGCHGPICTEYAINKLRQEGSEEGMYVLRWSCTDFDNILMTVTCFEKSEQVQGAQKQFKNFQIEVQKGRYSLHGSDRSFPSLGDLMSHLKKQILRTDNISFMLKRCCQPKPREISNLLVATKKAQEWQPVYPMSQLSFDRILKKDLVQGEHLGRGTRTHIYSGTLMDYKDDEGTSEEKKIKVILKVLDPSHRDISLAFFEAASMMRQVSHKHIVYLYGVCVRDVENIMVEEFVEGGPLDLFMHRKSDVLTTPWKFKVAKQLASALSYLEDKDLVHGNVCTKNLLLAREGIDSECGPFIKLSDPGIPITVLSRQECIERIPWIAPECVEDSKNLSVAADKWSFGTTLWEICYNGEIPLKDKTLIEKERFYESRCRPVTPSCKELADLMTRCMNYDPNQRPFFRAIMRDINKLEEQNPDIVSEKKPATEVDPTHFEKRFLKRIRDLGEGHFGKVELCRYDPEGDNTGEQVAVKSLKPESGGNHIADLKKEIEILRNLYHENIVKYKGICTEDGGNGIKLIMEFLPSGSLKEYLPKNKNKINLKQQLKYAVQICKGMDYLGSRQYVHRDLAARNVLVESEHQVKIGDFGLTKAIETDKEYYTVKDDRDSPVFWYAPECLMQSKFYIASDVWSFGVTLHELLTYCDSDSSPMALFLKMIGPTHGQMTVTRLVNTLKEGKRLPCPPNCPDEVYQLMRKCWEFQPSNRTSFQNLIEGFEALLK
Description: JAK1 enzyme inhibition test (LANCE method). The note with it: 1 μM test compound; for inhibition at 1 µM: read-out: JAK1 enzyme inhibitory activity (%, 1 μM). Summed up: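 TR-FRET (LANCE) with ULight-JAK1 peptide (300 nM working solution) and ATP (150 μM working solution) in HEPES pH 7.5, MgCl2, EGTA, DTT buffer; 1 h at room temperature. EDTA stop plus Eu-anti-phosphotyrosine antibody, 665 nm read after 1 h. Inhibition relative to enzyme-free wells as 100%.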

The target of assay [4] is T4, TYK2 (Homo sapiens, UniProt P29597).
T4 construct: purchased Invitrogen
T4 sequence (P29597 whole entry): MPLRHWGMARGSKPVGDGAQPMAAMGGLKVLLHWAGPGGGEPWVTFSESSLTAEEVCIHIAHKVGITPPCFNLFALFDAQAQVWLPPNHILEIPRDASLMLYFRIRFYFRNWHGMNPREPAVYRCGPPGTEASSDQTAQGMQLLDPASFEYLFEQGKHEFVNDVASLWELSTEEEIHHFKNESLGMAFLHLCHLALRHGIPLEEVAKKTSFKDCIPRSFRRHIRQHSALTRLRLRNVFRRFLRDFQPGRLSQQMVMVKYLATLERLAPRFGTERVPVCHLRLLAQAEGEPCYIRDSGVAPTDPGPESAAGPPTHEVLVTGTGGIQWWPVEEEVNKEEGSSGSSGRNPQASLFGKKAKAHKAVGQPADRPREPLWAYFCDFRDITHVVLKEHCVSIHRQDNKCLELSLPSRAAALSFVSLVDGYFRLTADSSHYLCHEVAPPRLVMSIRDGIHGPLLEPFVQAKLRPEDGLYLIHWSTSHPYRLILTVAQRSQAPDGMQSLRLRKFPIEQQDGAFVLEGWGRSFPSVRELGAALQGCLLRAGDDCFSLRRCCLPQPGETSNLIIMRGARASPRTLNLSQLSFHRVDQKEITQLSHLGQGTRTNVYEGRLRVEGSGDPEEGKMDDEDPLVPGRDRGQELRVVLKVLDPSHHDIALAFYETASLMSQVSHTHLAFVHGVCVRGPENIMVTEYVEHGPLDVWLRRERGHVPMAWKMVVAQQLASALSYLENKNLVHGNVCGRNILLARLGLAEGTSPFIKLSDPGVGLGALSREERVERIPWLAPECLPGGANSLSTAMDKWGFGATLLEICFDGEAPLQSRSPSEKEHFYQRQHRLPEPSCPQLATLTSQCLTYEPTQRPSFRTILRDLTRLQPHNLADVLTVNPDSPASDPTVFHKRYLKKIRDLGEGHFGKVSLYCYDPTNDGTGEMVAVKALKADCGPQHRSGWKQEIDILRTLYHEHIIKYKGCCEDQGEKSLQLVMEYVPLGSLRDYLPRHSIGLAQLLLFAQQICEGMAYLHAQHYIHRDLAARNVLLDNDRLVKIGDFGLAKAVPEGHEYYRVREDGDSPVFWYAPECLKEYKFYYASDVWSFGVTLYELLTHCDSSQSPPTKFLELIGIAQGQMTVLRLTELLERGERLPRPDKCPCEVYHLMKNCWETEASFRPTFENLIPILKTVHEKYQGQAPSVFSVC
The assay is described as follows: TYK2 enzyme inhibition test (LANCE method). Conditions: 1 μM test compound; for inhibition at 1 µM: read-out: TYK2 enzyme inhibitory activity (%, 1 μM). Summed up: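 Recombinant TYK2 (375 ng/mL working solution) with ULight-JAK1 peptide (300 nM working solution) and ATP (30 μM working solution) in HEPES pH 7.5 buffer with MgCl2, EGTA, DTT, Tween20, BSA, reacted 1 h at RT. EDTA-stopped, Eu-anti-phosphotyrosine TR-FRET read at 665 nm; inhibition relative to enzyme-free wells as 100%.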

T1 sequence (O60674 whole entry): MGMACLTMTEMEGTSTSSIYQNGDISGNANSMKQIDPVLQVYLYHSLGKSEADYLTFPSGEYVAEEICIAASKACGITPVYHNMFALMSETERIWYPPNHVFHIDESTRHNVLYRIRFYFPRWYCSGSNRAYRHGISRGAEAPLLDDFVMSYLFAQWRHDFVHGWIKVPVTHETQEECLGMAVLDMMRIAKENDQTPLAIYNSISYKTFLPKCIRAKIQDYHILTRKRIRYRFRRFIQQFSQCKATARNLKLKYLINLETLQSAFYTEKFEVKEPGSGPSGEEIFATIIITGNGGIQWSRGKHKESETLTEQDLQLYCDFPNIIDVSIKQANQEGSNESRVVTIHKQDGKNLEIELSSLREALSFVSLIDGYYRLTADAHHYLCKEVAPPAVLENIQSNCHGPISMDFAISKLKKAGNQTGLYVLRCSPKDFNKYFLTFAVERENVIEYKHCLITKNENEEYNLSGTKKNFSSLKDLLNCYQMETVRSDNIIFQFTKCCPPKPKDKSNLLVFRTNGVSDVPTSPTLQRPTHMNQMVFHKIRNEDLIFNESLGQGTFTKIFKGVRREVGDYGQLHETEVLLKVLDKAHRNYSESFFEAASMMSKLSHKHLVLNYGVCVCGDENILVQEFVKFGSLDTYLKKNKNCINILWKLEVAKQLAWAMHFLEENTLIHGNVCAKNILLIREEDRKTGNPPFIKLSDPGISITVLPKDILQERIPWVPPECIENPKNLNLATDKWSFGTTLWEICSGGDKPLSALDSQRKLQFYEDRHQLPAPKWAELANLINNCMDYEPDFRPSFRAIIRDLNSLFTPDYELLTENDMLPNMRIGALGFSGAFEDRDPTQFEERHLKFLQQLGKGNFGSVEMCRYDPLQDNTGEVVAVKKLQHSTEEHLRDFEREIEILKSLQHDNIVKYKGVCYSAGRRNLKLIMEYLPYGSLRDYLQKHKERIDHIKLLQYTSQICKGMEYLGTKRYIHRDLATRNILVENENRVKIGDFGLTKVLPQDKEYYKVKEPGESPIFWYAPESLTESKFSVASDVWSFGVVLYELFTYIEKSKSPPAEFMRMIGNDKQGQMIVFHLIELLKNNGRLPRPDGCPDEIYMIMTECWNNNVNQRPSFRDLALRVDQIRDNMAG

Consider `CC(=O)N1CCN(c2cc(-c3cn([C@@H](C)C(C)C)c(=O)c4c(N)n[nH]c34)nn2C)CC1` [Example 11, 7-(5-(4-acetylpiperazin-1-yl)-1-methyl-1H-pyrazol-3-yl)-3-amino-5-((2S)-3-methylbutan-2-yl)-1,5-dihydro-4H-pyrazolo[4,3-c]pyridin-4-one], for which the inhibition at 1 µM in assay [1] was 99%; in assay [2], 99%; in assay [3], 98%; in assay [4], 100%.
As for `CC(C)[C@@H](C)n1cc(-c2cc(C(C)(C)O)n(C)n2)c2[nH]nc(N)c2c1=O` [Example 100, 3-amino-7-(5-(2-hydroxypropan-2-yl)-1-methyl-1H-pyrazol-3-yl)-5-((2R)-3-methylbutan-2-yl)-1,5-dihydro-4H-pyrazolo[4,3-c]pyridin-4-one], the inhibition at 1 µM was 65% in assay [1], 86% in assay [2], 82% in assay [3] and 96% in assay [4].
For the compound `CNC[C@H]1CCCN1c1cc(-c2cn(C(C3CC3)C3CC3)c(=O)c3c(N)n[nH]c23)nn1C` [Example 172, 3-amino-5-(dicyclopropylmethyl)-7-(1-methyl-5-((2R)-2-((methylamino)methyl)pyrrolidin-1-yl)-1H-pyrazol-3-yl)-1,5-dihydro-4H-pyrazolo[4,3-c]pyridin-4-one], the inhibition at 1 µM was determined as 98% in assay [1], 98% in assay [2], 93% in assay [3] and 98% in assay [4].
On to `CC(C)[C@H](C)n1cc(-c2cc(C(C)(C)CO)n(C)n2)c2[nH]nc(N)c2c1=O` [Example 3, 3-amino-7-(5-(1-hydroxy-2-methylpropan-2-yl)-1-methyl-1H-pyrazol-3-yl)-5-((2S)-3-methylbutan-2-yl)-1,5-dihydro-4H-pyrazolo[4,3-c]pyridin-4-one], for which the inhibition at 1 µM in assay [1] was determined as 99%; in assay [2] it was 100%; in assay [3], 98%; in assay [4], 100%.
On to `COC[C@H]1CCCN1c1cc(-c2cn([C@@H](C)C(C)C)c(=O)c3c(N)n[nH]c23)nn1C` [Example 135, 3-amino-7-(5-((2R)-2-(methoxymethyl)pyrrolidin-1-yl)-1-methyl-1H-pyrazol-3-yl)-5-((2S)-3-methylbutan-2-yl)-1,5-dihydro-4H-pyrazolo[4,3-c]pyridin-4-one], for which the inhibition at 1 µM was determined as 98% in assay [1], 99% in assay [2], 96% in assay [3] and 100% in assay [4].
With `CC(C)[C@H](C)n1cc(-c2cc(N3CC[C@H](O)C3)n(C)n2)c2[nH]nc(N)c2c1=O` [Example 23, 3-amino-7-(5-((3S)-3-hydroxypyrrolidin-1-yl)-1-methyl-1H-pyrazol-3-yl)-5-((2S)-3-methylbutan-2-yl)-1,5-dihydro-4H-pyrazolo[4,3-c]pyridin-4-one], the inhibition at 1 µM in assay [1] was determined as 98%; in assay [2], 99%; in assay [3], 97%; in assay [4], 99%.
Take `COCCn1nc(-c2cn([C@@H](C)C(C)C)c(=O)c3c(N)n[nH]c23)cc1C(C)(C)O` [Example 36, 3-amino-7-(5-(2-hydroxypropan-2-yl)-1-(2-methoxyethyl)-1H-pyrazol-3-yl)-5-((2S)-3-methylbutan-2-yl)-1,5-dihydro-4H-pyrazolo[4,3-c]pyridin-4-one]: the inhibition at 1 µM in assay [1] is 80%; in assay [2], 85%; in assay [3], 55%; in assay [4] it was 91%.
Consider `CC(C)[C@H](C)n1cc(-c2cc(C(C)(C)O)n(C)n2)c2[nH]nc(N)c2c1=O.Cl` [Example 86, 3-amino-7-(5-(2-hydroxypropan-2-yl)-1-methyl-1H-pyrazol-3-yl)-5-((2S)-3-methylbutan-2-yl)-1,5-dihydro-4H-pyrazolo[4,3-c]pyridin-4-one hydrochloride], for which the “JAK2 enzyme inhibitory activity (%, 1 μM)” value in assay [1] is reported as 98%. Moreover, the “JAK3 enzyme inhibitory activity (%, 1 μM)” value in assay [2] is 99%. For the same compound, the “JAK1 enzyme inhibitory activity (%, 1 μM)” value in assay [3] was determined as 98%. Besides, in assay [4], the “TYK2 enzyme inhibitory activity (%, 1 μM)” value stood at 100%.
With `CC(C)[C@H](C)n1cc(-c2cc(N3CCOC3=O)n(C)n2)c2[nH]nc(N)c2c1=O` [Example 54, 3-amino-5-((2S)-3-methylbutan-2-yl)-7-(1-methyl-5-(2-oxo-1,3-oxazolidin-3-yl)-1H-pyrazol-3-yl)-1,5-dihydro-4H-pyrazolo[4,3-c]pyridin-4-one], the inhibition at 1 µM in assay [1] came out at 98%; in assay [2], 99%; in assay [3], 98%; in assay [4] it was 98%.
Regarding `COC1(c2cc(-c3cn(-c4c(F)cccc4F)c(=O)c4c(N)n[nH]c34)nn2C)CCS(=O)(=O)CC1` [Example 129, 3-amino-5-(2,6-difluorophenyl)-7-(5-(4-methoxy-1,1-dioxidotetrahydro-2H-thiopyran-4-yl)-1-methyl-1H-pyrazol-3-yl)-1,5-dihydro-4H-pyrazolo[4,3-c]pyridin-4-one], the inhibition at 1 µM in assay [1] amounted to 99%; in assay [2], 99%; in assay [3], 97%; in assay [4], 100%.
Regarding `CN(C)C[C@H]1CCCN1c1cc(-c2cn(C(C3CC3)C3CC3)c(=O)c3c(N)n[nH]c23)nn1C` [Example 145, 3-amino-5-(dicyclopropylmethyl)-7-(5-((2R)-2-((dimethylamino)methyl)pyrrolidin-1-yl)-1-methyl-1H-pyrazol-3-yl)-1,5-dihydro-4H-pyrazolo[4,3-c]pyridin-4-one], the inhibition at 1 µM in assay [1] was 98%; in assay [2], 99%; in assay [3], 89%; in assay [4], 100%.
Take `COC1(c2cc(-c3cn([C@@H](C)C(C)C)c(=O)c4c(N)n[nH]c34)nn2C)CCS(=O)(=O)CC1` [Example 110, 3-amino-7-(5-(4-methoxy-1,1-dioxidotetrahydro-2H-thiopyran-4-yl)-1-methyl-1H-pyrazol-3-yl)-5-((2S)-3-methylbutan-2-yl)-1,5-dihydro-4H-pyrazolo[4,3-c]pyridin-4-one]: the inhibition at 1 µM in assay [1] came out at 99%; in assay [2], 99%; in assay [3] it was 89%; in assay [4], 100%.
As to `CC(C)[C@H](C)n1cc(-c2cc(N3CCC(F)(F)CC3)n(C)n2)c2[nH]nc(N)c2c1=O` [Example 16, 3-amino-7-(5-(4,4-difluoropiperidin-1-yl)-1-methyl-1H-pyrazol-3-yl)-5-((2S)-3-methylbutan-2-yl)-1,5-dihydro-4H-pyrazolo[4,3-c]pyridin-4-one], the inhibition at 1 µM in assay [1] was found to be 99%; in assay [2], 100%; in assay [3], 97%; in assay [4] it was 100%.
